According to patent publication US20130303533A1, “AZOLOPYRIDINE AND AZOLOPYRIMIDINE COMPOUNDS AND METHODS OF USE THEREOF” (AMBIT BIOSCIENCES CORPORATION, priority 2010, published 2013):

Key:
JAK3 = target: T1, JAK3 (Homo sapiens, UniProt P52333); experiment: Competition binding assay to determine binding constants (Kd), JAK3
T1 construct: made in house; host or cells: T7 phage display or HEK-293 cells (alternatives)
T1 sequence (P52333 1-1124): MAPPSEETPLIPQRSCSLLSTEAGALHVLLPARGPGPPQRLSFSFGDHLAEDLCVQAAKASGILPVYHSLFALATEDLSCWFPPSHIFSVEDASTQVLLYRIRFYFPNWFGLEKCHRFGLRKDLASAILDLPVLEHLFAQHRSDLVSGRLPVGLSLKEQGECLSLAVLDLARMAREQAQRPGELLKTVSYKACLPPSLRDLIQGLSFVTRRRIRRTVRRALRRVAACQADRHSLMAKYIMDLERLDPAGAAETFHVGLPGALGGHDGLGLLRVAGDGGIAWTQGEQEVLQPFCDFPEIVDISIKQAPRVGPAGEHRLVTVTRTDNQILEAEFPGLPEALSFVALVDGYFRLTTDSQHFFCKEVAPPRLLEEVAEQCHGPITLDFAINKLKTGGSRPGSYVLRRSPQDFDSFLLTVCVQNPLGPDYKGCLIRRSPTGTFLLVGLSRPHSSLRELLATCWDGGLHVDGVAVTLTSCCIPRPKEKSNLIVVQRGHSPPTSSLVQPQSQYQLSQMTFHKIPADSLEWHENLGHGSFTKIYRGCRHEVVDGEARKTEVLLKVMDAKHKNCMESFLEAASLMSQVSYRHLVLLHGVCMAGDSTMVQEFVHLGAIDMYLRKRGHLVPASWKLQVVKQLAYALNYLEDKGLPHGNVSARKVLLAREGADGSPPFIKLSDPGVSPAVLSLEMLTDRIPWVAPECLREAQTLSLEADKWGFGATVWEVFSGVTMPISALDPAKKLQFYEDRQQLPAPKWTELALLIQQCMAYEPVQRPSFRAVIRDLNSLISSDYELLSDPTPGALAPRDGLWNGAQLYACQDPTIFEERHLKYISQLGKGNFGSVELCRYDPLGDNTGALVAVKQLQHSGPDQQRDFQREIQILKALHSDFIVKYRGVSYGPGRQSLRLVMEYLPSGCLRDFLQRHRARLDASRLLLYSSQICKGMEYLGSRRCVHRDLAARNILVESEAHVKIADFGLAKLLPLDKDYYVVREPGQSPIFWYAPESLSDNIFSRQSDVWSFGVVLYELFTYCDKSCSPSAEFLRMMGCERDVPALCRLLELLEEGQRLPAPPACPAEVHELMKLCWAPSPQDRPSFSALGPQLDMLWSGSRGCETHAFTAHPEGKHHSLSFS
Description: (§1) Competition Binding Assay to Determine Binding Constants (Kd) of the Compounds Against JAK Kinases
(§2) Competition binding assays used herein were developed, validated and performed as described in Fabian et al., Nature Biotechnology 2005, 23, 329-336. Kinases were produced as fusions to T7 phage (See, Fabian et al. or WO04/015142) or alternatively, the kinases were expressed in HEK-293 cells and subsequently tagged with DNA for PCR detection (See, WO08/005,310). For the binding assays, streptavidin-coated magnetic beads were treated with biotinylated affinity ligands for 30 min at rt to generate affinity resins. The liganded beads were blocked with excess biotin and washed with blocking buffer (SeaBlock (Pierce), 1% BSA, 0.05% Tween 20, 1 mM DTT) to remove unbound ligand and to reduce non-specific binding. Binding reactions were assembled by combining kinase, liganded affinity beads, and test compounds in 1× binding buffer (20% SeaBlock, 0.17×PBS, 0.05% Tween 20, 6 mM DTT). Test compounds were prepared as 100× stocks in DMSO and rapidly diluted into the aqueous environment. DMSO was added to control assays lacking a test compound. Primary screen interactions were performed in polypropylene 384-well plates in a final volume of 34 μL, while Kd determinations were performed in polystyrene 96-well plates in a final volume of 135 μL. The assay plates were incubated at room temperature with shaking for 1 hour, long enough for binding reactions to reach equilibrium, and the affinity beads were washed extensively with wash buffer (1×PBS, 0.05% Tween 20) to remove unbound protein. The beads were then resuspended in elution buffer (1×PBS, 0.05% Tween 20, 2 μM non-biotinylated affinity ligand) and incubated at room temperature with shaking for 30 min. The kinase concentration in the eluates was measured by quantitative PCR. Each kinase was tested individually against each compound. Kds were determined using eleven serial threefold dilutions. A selectivity score, which is a quantitative measure of selectivity of a compound against a panel of enzymes, may be calculated for a compound by dividing the number of enzymes for which a compound meets a set criteria, (for example, a binding constant of 100 nM or less), by the total number of enzymes tested.

[1] = test system: GM-CSFR/JAK2/STAT5 pathway; experiment: CSTF-1 cell-based reporter assay; settings: Homo sapiens; csTF-1 cells, GM-CSF at 2 ng/mL, 4 hours, beta-lactamase reporter; read-out: Cell Assay: CS TF-1 reporter assay IC50
Description: CSTF-1 Cell-Based Reporter Assay
CSTF-1 cells are derived from the human erythroleukemia cell line that is growth dependent on GM-CSF and has an intact GM-CSFR/JAK2/STAT5 pathway. The cell line contains stably integrated beta-lactamase reporter gene under the control of the […] (irf 1) response element recognized by the activated transcription factor STAT5. csTF-1 cells (Invitrogen K1219) were washed with assay media (97% OPTIMEM/0.5% dialyzed FBS/0.1 mM NEAA/1 mM Na pyr/P/S) and seeded in the same media at 5×10^5 cell/mL in T150 flask. After 16 hour incubation, cells were seeded at 2×10^5 cell/well in 50 μl volume, into Costar, clear bottom, 96-well assay plates. Serial dilutions of compounds were added to the plates with final DMSO concentration at 0.5% and GM-CSF at 2 ng/mL and the plates were then incubated at 30° C. and 5% CO2 for 4 hours. The plates were brought to room temperature before adding Substrate Mixture according to manufacturer's protocol (Invitrogen, Catalog #K1085). The assay plates containing the substrate mixture were incubated in the dark at room temperature for 2 hours. Blue and green fluorescence was measured with excitation at 409 nm and emission at 460 nm (for blue) and excitation at 409 nm and emission at 530 nm (for green) using Spectra Max Gemini EM.

JAK2 = target: T2, JAK2 (Homo sapiens, UniProt O60674); experiment: Competition binding assay to determine binding constants (Kd), JAK2
T2 construct: made in house; host or cells: T7 phage display or HEK-293 cells (alternatives)
T2 sequence (O60674 whole entry): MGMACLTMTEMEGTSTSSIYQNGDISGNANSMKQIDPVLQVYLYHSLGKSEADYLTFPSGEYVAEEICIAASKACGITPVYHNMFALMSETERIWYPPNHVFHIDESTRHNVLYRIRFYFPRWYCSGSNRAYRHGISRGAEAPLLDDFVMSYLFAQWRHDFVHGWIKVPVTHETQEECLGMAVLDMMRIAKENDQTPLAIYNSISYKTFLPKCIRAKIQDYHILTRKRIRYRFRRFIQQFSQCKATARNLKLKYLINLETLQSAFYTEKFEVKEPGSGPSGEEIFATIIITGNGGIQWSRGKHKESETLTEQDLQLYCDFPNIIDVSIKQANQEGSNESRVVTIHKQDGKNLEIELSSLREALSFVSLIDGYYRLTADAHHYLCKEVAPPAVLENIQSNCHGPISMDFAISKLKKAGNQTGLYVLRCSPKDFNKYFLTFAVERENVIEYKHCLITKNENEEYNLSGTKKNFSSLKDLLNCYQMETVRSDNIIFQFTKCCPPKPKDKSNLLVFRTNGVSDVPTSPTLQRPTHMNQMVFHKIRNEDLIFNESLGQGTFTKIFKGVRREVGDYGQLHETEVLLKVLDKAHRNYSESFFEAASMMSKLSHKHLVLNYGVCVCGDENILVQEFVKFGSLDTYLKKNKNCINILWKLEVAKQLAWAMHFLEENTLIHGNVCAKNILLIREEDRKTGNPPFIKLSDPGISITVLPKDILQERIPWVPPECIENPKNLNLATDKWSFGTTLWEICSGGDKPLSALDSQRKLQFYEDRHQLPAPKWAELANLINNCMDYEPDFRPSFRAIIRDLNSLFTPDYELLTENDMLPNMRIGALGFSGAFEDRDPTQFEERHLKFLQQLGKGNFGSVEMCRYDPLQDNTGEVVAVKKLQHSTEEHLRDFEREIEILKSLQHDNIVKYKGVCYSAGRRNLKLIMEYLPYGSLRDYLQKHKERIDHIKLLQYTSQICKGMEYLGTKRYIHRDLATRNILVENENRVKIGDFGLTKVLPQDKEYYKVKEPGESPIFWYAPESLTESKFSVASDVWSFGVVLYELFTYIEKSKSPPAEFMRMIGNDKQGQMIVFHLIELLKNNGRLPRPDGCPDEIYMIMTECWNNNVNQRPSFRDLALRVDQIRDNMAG
Description: as §1, §2

TYK2 = target: T3, TYK2 (Homo sapiens, UniProt P29597); experiment: Competition binding assay to determine binding constants (Kd), TYK2
T3 construct: made in house; host or cells: T7 phage display or HEK-293 cells (alternatives)
T3 sequence (P29597 whole entry): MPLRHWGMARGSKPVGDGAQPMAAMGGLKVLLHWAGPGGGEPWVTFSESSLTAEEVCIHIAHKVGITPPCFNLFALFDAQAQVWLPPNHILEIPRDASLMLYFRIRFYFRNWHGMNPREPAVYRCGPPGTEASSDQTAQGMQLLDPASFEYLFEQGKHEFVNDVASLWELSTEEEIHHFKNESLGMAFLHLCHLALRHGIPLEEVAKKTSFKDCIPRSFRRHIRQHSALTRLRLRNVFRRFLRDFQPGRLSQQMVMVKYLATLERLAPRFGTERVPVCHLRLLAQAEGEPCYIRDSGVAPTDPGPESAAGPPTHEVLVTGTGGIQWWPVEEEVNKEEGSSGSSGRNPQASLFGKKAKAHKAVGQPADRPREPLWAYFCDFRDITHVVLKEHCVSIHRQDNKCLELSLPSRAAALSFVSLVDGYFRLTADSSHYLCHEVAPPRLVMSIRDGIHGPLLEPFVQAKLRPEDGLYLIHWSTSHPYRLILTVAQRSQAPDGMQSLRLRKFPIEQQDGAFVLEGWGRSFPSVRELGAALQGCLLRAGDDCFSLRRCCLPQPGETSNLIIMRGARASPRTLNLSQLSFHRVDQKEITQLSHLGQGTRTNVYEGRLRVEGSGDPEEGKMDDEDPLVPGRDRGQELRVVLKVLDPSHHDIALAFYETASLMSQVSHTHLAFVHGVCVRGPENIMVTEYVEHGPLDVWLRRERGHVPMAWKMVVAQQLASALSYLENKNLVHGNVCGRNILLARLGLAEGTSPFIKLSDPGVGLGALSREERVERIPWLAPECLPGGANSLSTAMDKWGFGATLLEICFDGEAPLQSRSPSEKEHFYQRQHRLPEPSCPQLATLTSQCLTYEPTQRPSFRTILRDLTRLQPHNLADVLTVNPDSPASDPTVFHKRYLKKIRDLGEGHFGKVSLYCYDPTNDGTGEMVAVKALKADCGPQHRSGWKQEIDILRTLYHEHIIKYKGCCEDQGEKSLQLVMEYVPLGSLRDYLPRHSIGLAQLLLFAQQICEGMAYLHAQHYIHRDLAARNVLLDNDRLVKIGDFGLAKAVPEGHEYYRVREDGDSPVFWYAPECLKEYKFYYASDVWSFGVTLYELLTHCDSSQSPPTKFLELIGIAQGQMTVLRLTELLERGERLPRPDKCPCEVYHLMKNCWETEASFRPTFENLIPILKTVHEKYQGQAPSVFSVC
Description: as §1, §2

Row | Kd (JAK3) | IC50 [1] | Kd (JAK2) | Kd (TYK2) | SMILES
1 | 10 to 100 nM | 100 to 500 nM | 1 to 10 nM | 10 to 100 nM | C=Cn1ncc2c(Nc3cc(C)[nH]n3)nc(C(F)(F)c3ccc(F)cc3)nc21 [Example 33, 6-(difluoro(4-fluorophenyl)methyl)-N-(5-methyl-1H-pyrazol-3-yl)-1-vinyl-1H-pyrazolo[3,4-d]pyrimidin-4-amine]
2 | > 100 nM | 100 to 500 nM | > 10 nM | 10 to 100 nM | CCn1ncc2c(Nc3cc(C)[nH]n3)nc(Sc3ccc(F)cc3)nc21 [Example 43, 1-ethyl-6-((4-fluorophenyl)thio)-N-(5-methyl-1H-pyrazol-3-yl)-1H-pyrazolo[3,4-d]pyrimidin-4-amine]
3 | 10 to 100 nM | > 500 nM | 1 to 10 nM | ≤ 10 nM | Cc1cc(Nc2nc(C(F)(F)c3ccc(F)cc3)nc3nc(C#N)sc23)n[nH]1 [Example 40, 5-(difluoro(4-fluorophenyl)methyl)-7-(5-methyl-1H-pyrazol-3-ylamino)thiazolo[4,5-d]pyrimidine-2-carbonitrile]
4 | 10 to 100 nM | 100 to 500 nM | 1 to 10 nM | ≤ 10 nM | COc1nc2nc(C(F)(F)c3ccc(F)cc3)nc(Nc3cc(C)[nH]n3)c2s1 [Example 39, 5-(difluoro(4-fluorophenyl)methyl)-2-methoxy-N-(5-methyl-1H-pyrazol-3-yl)thiazolo[4,5-d]pyrimidin-7-amine]
5 | 10 to 100 nM | ≤ 100 nM | ≤ 1 nM | ≤ 10 nM | Cc1cc(Nc2nc(C(F)(F)c3ccc(F)cc3)nc3[nH]ncc23)n[nH]1 [Example 30, 6-(difluoro(4-fluorophenyl)methyl)-N-(5-methyl-1H-pyrazol-3-yl)-1H-pyrazolo[3,4-d]pyrimidin-4-amine]
6 | 10 to 100 nM | 100 to 500 nM | 1 to 10 nM | ≤ 10 nM | CSc1nc2nc(C(F)(F)c3ccc(F)cc3)nc(Nc3cc(C)[nH]n3)c2s1 [Example 35, 5-(difluoro(4-fluorophenyl)methyl)-N-(5-methyl-1H-pyrazol-3-yl)-2-(methylthio)thiazolo[4,5-d]pyrimidin-7-amine]

Second part, the compound before the results:

Row | SMILES | Kd (JAK3) | IC50 [1] | Kd (JAK2) | Kd (TYK2)
7 | Cc1cc(Nc2nc(C(O)c3ccc(F)cc3)nc3nn(C)cc23)n[nH]1 (racemic) [Example 22, (R,S)-(4-fluorophenyl)(2-methyl-4-(5-methyl-1H-pyrazol-3-ylamino)-2H-pyrazolo[3,4-d]pyrimidin-6-yl)methanol] | 10 to 100 nM | 100 to 500 nM | ≤ 1 nM | ≤ 10 nM
8 | Cc1cc(Nc2nc([S+]([O-])c3ccc(F)cc3)nc3[nH]ccc23)n[nH]1 (racemic) [Example 2, (R,S)-2-(4-fluorophenylsulfinyl)-N-(5-methyl-1H-pyrazol-3-yl)-7H-pyrrolo[2,3-d]pyrimidin-4-amine] | ≤ 10 nM | ≤ 100 nM | ≤ 1 nM | ≤ 10 nM
9 | COCCn1ccc2c(Nc3cc[nH]n3)nc(S(=O)(=O)c3ccc(F)cc3)nc21 [Example 12, 2-(4-fluorophenylsulfonyl)-7-(2-methoxyethyl)-N-(1H-pyrazol-3-yl)-7H-pyrrolo[2,3-d]pyrimidin-4-amine] | ≤ 10 nM | ≤ 100 nM | ≤ 1 nM | ≤ 10 nM
10 | Cn1cc2c(Nc3cc[nH]n3)nc(C(F)(F)c3ccc(F)cc3)nc2n1 [Example 21, 6-(difluoro(4-fluorophenyl)methyl)-2-methyl-N-(1H-pyrazol-3-yl)-2H-pyrazolo[3,4-d]pyrimidin-4-amine] | 10 to 100 nM | 100 to 500 nM | ≤ 1 nM | ≤ 10 nM
11 | Cc1cc(Nc2nc(S(=O)(=O)c3ccc(F)cc3)nc3c2ccn3CCO)n[nH]1 [Example 13, 2-(2-(4-fluorophenylsulfonyl)-4-(5-methyl-1H-pyrazol-3-ylamino)-7H-pyrrolo[2,3-d]pyrimidin-7-yl)ethanol] | ≤ 10 nM | ≤ 100 nM | ≤ 1 nM | ≤ 10 nM
12 | Cc1cc(Nc2nc(S(=O)(=O)c3ccc(F)cc3)nc3c2cnn3CCO)n[nH]1 [Example 23, 2-(6-(4-fluorophenylsulfonyl)-4-(5-methyl-1H-pyrazol-3-ylamino)-1H-pyrazolo[3,4-d]pyrimidin-1-yl)ethanol] | 10 to 100 nM | 100 to 500 nM | ≤ 1 nM | ≤ 10 nM
13 | Cc1cc(Nc2nc(C(F)(F)c3ccc(F)cc3)nc3c2cnn3C)n[nH]1 [Example 26, 6-(difluoro(4-fluorophenyl)methyl)-1-methyl-N-(5-methyl-1H-pyrazol-3-yl)-1H-pyrazolo[3,4-d]pyrimidin-4-amine] | 10 to 100 nM | 100 to 500 nM | ≤ 1 nM | ≤ 10 nM
14 | Cc1cc(Nc2nc(S(=O)(=O)c3ccc(F)cc3)nc3c2cnn3C(C)(C)C)n[nH]1 [Example 25, 1-tert-butyl-6-(4-fluorophenylsulfonyl)-N-(5-methyl-1H-pyrazol-3-yl)-1H-pyrazolo[3,4-d]pyrimidin-4-amine] | > 100 nM | 100 to 500 nM | 1 to 10 nM | ≤ 10 nM
15 | Cc1cc(Nc2nc(S(=O)(=O)c3ccc(F)cc3)nc3c2cnn3CCN2CCOCC2)n[nH]1 [Example 29, 6-(4-fluorophenylsulfonyl)-N-(5-methyl-1H-pyrazol-3-yl)-1-(2-morpholinoethyl)-1H-pyrazolo[3,4-d]pyrimidin-4-amine] | 10 to 100 nM | 100 to 500 nM | ≤ 1 nM | ≤ 10 nM
16 | CCn1ncc2c(Nc3cc(C)[nH]n3)nc(S(=O)(=O)c3ccc(F)cc3)nc21 [Example 24, 1-ethyl-6-(4-fluorophenylsulfonyl)-N-(5-methyl-1H-pyrazol-3-yl)-1H-pyrazolo[3,4-d]pyrimidin-4-amine] | 10 to 100 nM | ≤ 100 nM | ≤ 1 nM | ≤ 10 nM
